Measured values: publication PMC12547551, “Lanostane–Meroterpene Conjugates with Unusual Aryl Ether Linkage and a Lanostane Dimer from Artificially Cultivated Fruiting Bodies of Ganoderma cf. hochiminhense” (ACS Omega, 2025)
≈ marks a conversion by molar mass, not a printed value.

How the values were obtained:
Vero cells = assay: Cytotoxicity to Vero cells, green fluorescent protein detection method; format: cell-based, African green monkey; conditions: Chlorocebus sabaeus; nonmalignant Vero cells
[1] = test system: MCF-7 (breast cancer) cells; assay: Cytotoxicity against MCF-7 cells, resazurin fluorescent method; format: cell-based; conditions: Homo sapiens, MCF7
[2] = test system: NCI-H187 (small-cell lung cancer) cells; assay: Cytotoxicity against NCI-H187 cells, resazurin fluorescent method; format: cell-based; conditions: Homo sapiens
Plasmodium falciparum K1 = assay: Antiplasmodial assay, microculture radioisotope technique; format: cell-based; conditions: P. falciparum K1, standard drug
[3] = test system: Mycobacterium tuberculosis H37Ra; assay: Antimycobacterial activity, green fluorescent protein detection method; format: cell-based; conditions: M. tuberculosis H37Ra, standard drugs

Q: What does the source list for `CC(C)=CCC/C(=C/Cc1cc(OC(C)(C)[C@@H](O)CC[C@@H](C)[C@H]2CC[C@@]3(C)C4=CC[C@H]5C(C)(C)C(=O)CC[C@]5(C)C4=CC[C@]23C)ccc1O)C(=O)O` [ganohochimin G (7), Ganohochimin G]?
A: IC50 (Vero cells): 14 µM; IC50 [1]: > 70 µM; IC50 [2]: 21 µM

Q: `CC(C)=CCC/C(=C/Cc1cc(OC(C)(C)[C@@H](O)CC[C@@H](C)[C@H]2CC[C@@]3(C)C4=CC[C@H]5C(C)(C)[C@@H](O)CC[C@]5(C)C4=CC[C@]23C)ccc1O)C(=O)O` [ganohochimin H (8), Ganohochimin H] was tested. Which IC50 (Vero cells) did it give?
A: 24 µM

Q: And the IC50 [1]?
A: > 70 µM

Q: What about the IC50 [2] of the same compound?
A: 18 µM

Q: How did the IC50 (Plasmodium falciparum K1) turn out when `CCN(CC)CCCC(C)Nc1ccnc2cc(Cl)ccc12` (centres unmarked) [chloroquine] was run?
A: 0.58 µM

Q: For `NNC(=O)c1ccncc1` [isoniazid], which MIC [3] is on record?
A: 0.375 µg/mL (≈ 2.73 µM)

Q: Which IC50 (Vero cells) does the source give for `CC(C)=CCCC(C)=CCCC(=CCc1cc(O)ccc1OC(C)(C)C(O)CCC(C)C1CCC2(C)C3=CCC4C(C)(C)C(=O)CCC4(C)C3=CCC12C)C(=O)O` (centres unmarked) [ganohochimin A (1), Ganohochimin A] here?
A: 17 µM

Q: What about the IC50 [1] of the same compound?
A: > 64 µM

Q: And the IC50 [2]?
A: 19 µM

Q: What does the source list for `COc1cccc2c1C(=O)c1c(O)c3c(c(O)c1C2=O)C[C@@](O)(C(=O)CO)C[C@@H]3O[C@H]1C[C@H](N)[C@H](O)[C@H](C)O1` [doxorubicin, reference compound]?
A: IC50 [1]: 11 µM; IC50 [2]: 0.15 µM

Q: With `CC(C)=CCC/C(C)=C/CC/C(=C/Cc1cc(O)ccc1OC(C)(C)[C@@H](O)CC[C@@H](C)[C@H]1CC[C@@]2(C)C3=CC[C@H]4C(C)(C)[C@@H](O)CC[C@]4(C)C3=CC[C@]12C)C(=O)O` [ganohochimin B (2), Ganohochimin B] as the compound, how does the IC50 (Vero cells) read?
A: 28 µM

Q: What about the IC50 [1] of the same compound?
A: > 64 µM

Q: And the IC50 [2]?
A: 33 µM

Q: With `CC(C)=CCC/C(=C/Cc1cc(O)ccc1O)C(=O)O` [fornicin F (10), Fornicin F] as the compound, how does the IC50 (Vero cells) read?
A: > 181 µM

Q: And the IC50 [1]?
A: > 181 µM

Q: And the IC50 [2]?
A: 134 µM

Q: For `CC(C)=CCC/C(C)=C/CC/C(=C/Cc1cc(OC(C)(C)[C@@H](O)CC[C@@H](C)[C@H]2CC[C@@]3(C)C4=CC[C@H]5C(C)(C)C(=O)CC[C@]5(C)C4=CC[C@]23C)ccc1O)C(=O)O` [ganohochimin C (3), Ganohochimin C], which IC50 (Vero cells) is on record?
A: 30 µM

Q: And the IC50 [1]?
A: > 64 µM

Q: And the IC50 [2]?
A: 21 µM

Q: Which results are given for `Cc1c2ccncc2c(C)c2c1[nH]c1ccccc12` [ellipticine, reference compound]?
A: IC50 (Vero cells): 6 µM; IC50 [2]: 7.6 µM

Q: `C[C@H]1[C@@H](O)O[C@@H]2O[C@@]3(C)CC[C@H]4[C@H](C)CC[C@@H]1[C@@]24OO3` [Dihydroartemisinin] was tested. Which IC50 (Plasmodium falciparum K1) did it give?
A: 0.0014 µM

Q: Which results are given for `CC(C)=CCC/C(=C/Cc1cc(O)ccc1OC(C)(C)[C@@H](O)CC[C@@H](C)[C@H]1CC[C@@]2(C)C3=CC[C@H]4C(C)(C)C(=O)CC[C@]4(C)C3=CC[C@]12C)C(=O)O` [ganohochimin E (5), Ganohochimin E]?
A: IC50 (Vero cells): 13 µM; IC50 [1]: > 70 µM; IC50 [2]: 21 µM

Q: With `CC(C)=CCC/C(C)=C/CC/C(=C/Cc1cc(OC(C)(C)[C@@H](O)CC[C@@H](C)[C@H]2CC[C@@]3(C)C4=CC[C@H]5C(C)(C)[C@@H](O)CC[C@]5(C)C4=CC[C@]23C)ccc1O)C(=O)O` [ganohochimin D (4), Ganohochimin D] as the compound, how does the IC50 (Vero cells) read?
A: 28 µM

Q: And the IC50 [1]?
A: > 64 µM

Q: What about the IC50 [2] of the same compound?
A: 16 µM

Q: How did the IC50 (Vero cells) turn out when `CC(C)=CCC/C(=C/Cc1cc(O)ccc1OC(C)(C)[C@@H](O)CC[C@@H](C)[C@H]1CC[C@@]2(C)C3=CC[C@H]4C(C)(C)[C@@H](O)CC[C@]4(C)C3=CC[C@]12C)C(=O)O` [ganohochimin F (6), Ganohochimin F] was run?
A: 6.3 µM

Q: And the IC50 [1]?
A: > 70 µM

Q: And the IC50 [2]?
A: 7.7 µM

Q: Which MIC [3] does the source give for `CO[C@H]1/C=C/O[C@@]2(C)Oc3c(C)c(O)c4c(O)c(c(/C=N/N5CCN(C)CC5)c(O)c4c3C2=O)NC(=O)/C(C)=C\C=C\[C@H](C)[C@H](O)[C@@H](C)[C@@H](O)[C@@H](C)[C@H](OC(C)=O)[C@@H]1C` [Rifampicin] here?
A: 0.025 µg/mL (≈ 0.0304 µM)

Q: What does the source list for `CCC(=O)CC[C@@]1(C)OC[C@]23[C@@H](O)C(=O)C4=C(C(=O)C[C@@H]([C@@]5(C)CO5)[C@]4(C)CCC(=O)O[C@@H](CC[C@@H](C)[C@H]4CC[C@@]5(C)C6=CC[C@H]7C(C)(C)C(=O)CC[C@]7(C)C6=CC[C@]45C)C(C)(C)O)[C@]2(C)CC[C@@H]31` [ganohochimate A (9), Ganohochimate A]?
A: IC50 (Vero cells): 52 µM; IC50 [1]: > 52 µM; IC50 [2]: > 52 µM
